Experimental data taken from article PMC9280689, “Resistance to Powdery Mildew in Qingke Involves the Accumulation of Aromatic Phenolamides Through Jasmonate-Mediated Activation of Defense-Related Genes” (Frontiers in Plant Science, 2022).

Molecular target: T1, HvTBT2 (Hordeum vulgare, UniProt A0A8I6X4Z6)
T1 construct: gene LOC123447140; full-length cDNA in pGEX-6p-1, GST fusion, E. coli BL21(DE3), purified
Assay: LC-MS product assay
Format: biochemical
Conditions: acyl donor; amine acceptor 100 μM (which amine not told); 10 mM MgCl2, Tris-HCl pH 7.4, 30 °C
Source text: LC-MS product assay on HvTBT2

T1 sequence (A0A8I6X4Z6 entry or part of it): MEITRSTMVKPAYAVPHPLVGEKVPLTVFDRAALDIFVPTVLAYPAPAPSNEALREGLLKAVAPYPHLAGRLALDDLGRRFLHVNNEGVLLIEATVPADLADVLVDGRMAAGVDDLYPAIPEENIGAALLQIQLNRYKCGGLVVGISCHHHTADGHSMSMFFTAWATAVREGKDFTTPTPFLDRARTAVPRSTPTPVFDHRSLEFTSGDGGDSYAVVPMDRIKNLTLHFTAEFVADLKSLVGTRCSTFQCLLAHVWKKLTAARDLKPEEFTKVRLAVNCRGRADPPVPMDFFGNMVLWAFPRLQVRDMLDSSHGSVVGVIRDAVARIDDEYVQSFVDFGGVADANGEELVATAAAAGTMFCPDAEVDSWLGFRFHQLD

Km: 382 ± 98.3 µM
Compound: COc1cc(/C=C/C(=O)SCCNC(=O)CCNC(=O)[C@H](O)C(C)(C)COP(=O)(O)OP(=O)(O)OC[C@H]2O[C@@H](n3cnc4c(N)ncnc43)[C@H](O)[C@@H]2OP(=O)(O)O)ccc1O [Feruloyl-CoA]
